Source: ChEMBL document CHEMBL5352478, “Novel pyridine-containing histone deacetylase inhibitors strongly arrest proliferation, induce apoptosis and modulate miRNAs in cancer cells” (Eur J Med Chem, 2023)
pIC50: −log10 of the molar value.

Assays:
K562 = assay: cells; format: functional, cell-based; settings: Homo sapiens, K562, 72 h
HCT-116 = assay: cells; format: functional, cell-based; settings: Homo sapiens, HCT-116, 72 h
Histone deacetylase 4 = Histone deacetylase 4 (Homo sapiens, UniProt P56524); settings: for pIC50: read-out: IC50
Chain of Histone deacetylase 4 (P56524 whole entry): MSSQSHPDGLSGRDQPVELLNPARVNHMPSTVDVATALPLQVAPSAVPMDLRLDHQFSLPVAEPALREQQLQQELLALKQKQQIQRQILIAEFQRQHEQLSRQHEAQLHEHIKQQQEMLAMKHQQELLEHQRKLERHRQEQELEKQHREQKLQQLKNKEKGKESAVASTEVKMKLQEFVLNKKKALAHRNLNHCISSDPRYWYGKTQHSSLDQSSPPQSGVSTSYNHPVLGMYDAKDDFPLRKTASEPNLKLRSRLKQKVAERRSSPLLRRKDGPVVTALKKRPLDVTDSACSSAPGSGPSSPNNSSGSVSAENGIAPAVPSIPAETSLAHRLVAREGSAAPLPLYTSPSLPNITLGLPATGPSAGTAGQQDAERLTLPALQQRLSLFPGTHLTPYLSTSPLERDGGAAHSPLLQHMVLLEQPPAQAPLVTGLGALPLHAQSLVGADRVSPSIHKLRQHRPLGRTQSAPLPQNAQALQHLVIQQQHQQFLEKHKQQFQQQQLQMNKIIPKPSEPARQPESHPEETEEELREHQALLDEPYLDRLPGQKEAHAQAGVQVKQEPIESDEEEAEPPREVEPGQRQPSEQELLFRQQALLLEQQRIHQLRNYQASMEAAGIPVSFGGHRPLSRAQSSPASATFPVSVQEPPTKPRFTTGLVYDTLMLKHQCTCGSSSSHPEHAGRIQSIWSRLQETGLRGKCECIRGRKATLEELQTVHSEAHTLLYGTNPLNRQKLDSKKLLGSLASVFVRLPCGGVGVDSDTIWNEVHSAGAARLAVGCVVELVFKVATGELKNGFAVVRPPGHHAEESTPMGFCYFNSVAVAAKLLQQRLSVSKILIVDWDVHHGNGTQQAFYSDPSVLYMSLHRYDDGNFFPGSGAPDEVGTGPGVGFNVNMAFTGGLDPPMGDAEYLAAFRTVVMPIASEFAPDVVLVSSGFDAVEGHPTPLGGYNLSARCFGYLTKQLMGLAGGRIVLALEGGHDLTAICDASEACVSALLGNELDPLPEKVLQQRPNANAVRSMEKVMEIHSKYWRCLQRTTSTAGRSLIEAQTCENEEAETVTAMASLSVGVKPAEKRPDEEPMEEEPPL

Histone deacetylase 8 [1] = target: T1, Histone deacetylase 8 (Homo sapiens, UniProt Q9BY41)
T1 sequence (Q9BY41 whole entry): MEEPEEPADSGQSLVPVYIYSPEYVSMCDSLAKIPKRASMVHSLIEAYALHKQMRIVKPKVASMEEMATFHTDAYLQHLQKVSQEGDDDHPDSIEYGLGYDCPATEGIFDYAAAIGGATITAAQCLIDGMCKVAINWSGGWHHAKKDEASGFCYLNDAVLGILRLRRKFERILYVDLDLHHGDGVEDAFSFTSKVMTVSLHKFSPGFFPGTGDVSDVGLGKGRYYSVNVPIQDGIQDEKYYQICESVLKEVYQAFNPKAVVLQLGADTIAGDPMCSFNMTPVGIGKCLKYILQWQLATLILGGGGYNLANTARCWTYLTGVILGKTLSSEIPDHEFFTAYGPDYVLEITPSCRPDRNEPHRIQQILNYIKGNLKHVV

A549 = assay: cells; format: functional, cell-based; settings: Homo sapiens, A549, 72 h
[2] = target: T2, Protein deacetylase HDAC6 (Homo sapiens, UniProt Q9UBN7); settings: for pIC50: read-out: IC50
T2 sequence (Q9UBN7 whole entry): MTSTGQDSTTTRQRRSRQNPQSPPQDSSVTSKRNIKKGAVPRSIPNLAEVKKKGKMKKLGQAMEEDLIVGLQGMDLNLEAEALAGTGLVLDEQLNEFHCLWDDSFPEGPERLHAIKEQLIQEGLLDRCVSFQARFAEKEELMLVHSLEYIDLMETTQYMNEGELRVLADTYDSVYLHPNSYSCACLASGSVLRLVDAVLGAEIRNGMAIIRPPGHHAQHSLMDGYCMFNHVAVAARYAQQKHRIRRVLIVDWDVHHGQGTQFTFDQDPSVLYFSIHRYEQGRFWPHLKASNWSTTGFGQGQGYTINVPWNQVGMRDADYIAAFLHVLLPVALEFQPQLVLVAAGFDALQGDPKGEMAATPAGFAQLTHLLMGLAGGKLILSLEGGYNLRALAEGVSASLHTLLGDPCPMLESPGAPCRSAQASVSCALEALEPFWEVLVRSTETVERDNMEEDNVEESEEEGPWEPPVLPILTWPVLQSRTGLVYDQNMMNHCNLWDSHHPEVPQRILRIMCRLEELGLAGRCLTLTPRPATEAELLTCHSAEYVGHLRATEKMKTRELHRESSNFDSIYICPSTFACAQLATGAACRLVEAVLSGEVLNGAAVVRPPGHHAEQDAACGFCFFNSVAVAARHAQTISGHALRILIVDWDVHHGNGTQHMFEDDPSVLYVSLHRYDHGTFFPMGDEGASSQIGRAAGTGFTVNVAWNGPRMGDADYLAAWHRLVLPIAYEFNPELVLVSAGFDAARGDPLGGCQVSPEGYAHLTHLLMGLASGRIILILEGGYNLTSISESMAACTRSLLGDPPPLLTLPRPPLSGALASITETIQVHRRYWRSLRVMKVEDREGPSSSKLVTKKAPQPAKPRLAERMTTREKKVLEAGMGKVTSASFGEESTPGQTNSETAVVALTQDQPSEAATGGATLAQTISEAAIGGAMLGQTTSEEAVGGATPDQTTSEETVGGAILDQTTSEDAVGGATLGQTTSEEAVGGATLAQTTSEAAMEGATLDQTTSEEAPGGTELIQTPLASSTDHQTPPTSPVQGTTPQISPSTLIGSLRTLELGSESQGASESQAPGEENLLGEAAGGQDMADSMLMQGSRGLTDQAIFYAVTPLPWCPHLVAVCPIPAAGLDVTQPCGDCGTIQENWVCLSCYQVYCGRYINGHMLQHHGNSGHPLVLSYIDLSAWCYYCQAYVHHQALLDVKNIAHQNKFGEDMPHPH

Histone deacetylase 3 = Histone deacetylase 3 (Homo sapiens, UniProt O15379)
Chain of Histone deacetylase 3 (O15379 whole entry): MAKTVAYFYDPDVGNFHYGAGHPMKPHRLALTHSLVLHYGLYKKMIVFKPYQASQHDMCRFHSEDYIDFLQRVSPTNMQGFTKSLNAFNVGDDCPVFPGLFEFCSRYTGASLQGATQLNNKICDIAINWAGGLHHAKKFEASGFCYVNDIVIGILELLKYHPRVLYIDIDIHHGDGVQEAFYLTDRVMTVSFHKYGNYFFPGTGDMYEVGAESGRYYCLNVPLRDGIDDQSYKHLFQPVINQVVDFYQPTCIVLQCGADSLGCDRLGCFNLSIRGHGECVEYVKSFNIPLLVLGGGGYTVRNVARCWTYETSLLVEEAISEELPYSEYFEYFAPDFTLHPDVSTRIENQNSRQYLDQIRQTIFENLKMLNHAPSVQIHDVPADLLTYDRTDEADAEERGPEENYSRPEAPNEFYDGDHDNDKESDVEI

Histone deacetylase 1 = Histone deacetylase 1 (Homo sapiens, UniProt Q13547)
Chain of Histone deacetylase 1 (Q13547 whole entry): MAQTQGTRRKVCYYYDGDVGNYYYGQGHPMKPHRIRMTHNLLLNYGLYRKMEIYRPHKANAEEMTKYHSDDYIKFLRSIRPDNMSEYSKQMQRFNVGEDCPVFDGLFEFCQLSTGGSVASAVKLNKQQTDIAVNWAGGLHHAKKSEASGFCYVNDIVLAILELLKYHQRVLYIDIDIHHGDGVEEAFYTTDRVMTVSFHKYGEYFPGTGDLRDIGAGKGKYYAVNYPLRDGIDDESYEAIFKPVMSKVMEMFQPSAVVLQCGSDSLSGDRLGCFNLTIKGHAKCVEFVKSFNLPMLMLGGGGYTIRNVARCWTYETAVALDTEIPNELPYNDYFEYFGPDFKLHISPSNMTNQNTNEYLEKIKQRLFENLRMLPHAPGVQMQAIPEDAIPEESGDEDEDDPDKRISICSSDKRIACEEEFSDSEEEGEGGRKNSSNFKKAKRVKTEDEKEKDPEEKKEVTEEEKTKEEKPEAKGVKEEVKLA

Histone deacetylase 8 [3] = target: T1, Histone deacetylase 8; remark: listed apart in the source
U-937 [4] = assay: Induction of cell cycle arrest in human U-937 cells assessed as accumulation of cells in G1 phase at 1 to 5 uM for 48 hrs by PI staining based flow cytometric analysis; format: functional; settings: dose 1-5 µM
U-937 [5] = assay: Induction of cell cycle arrest in human U-937 cells assessed as accumulation of cells in pre-G1 phase at 5 uM for 24 hrs by PI staining based flow cytometric analysis; format: functional
[6] = Antiproliferative activity against human IMS-M2 cells incubated for 48 hrs; format: functional, cell-based; settings: IMS-M2, 48 h
KARPAS-299 = assay: Antiproliferative activity against human KARPAS-299 cells incubated for 48 hrs; format: functional, cell-based; settings: KARPAS-299, 48 h
OCI-AML2 = assay: Antiproliferative activity against human OCI-AML2 cells incubated for 48 hrs; format: functional, cell-based; settings: OCI-AML2, 48 h
MV4-11 = assay: Antiproliferative activity against human MV4-11 cells incubated for 48 hrs; format: functional, cell-based; settings: MV4-11, 48 h
HL-60 = assay: Antiproliferative activity against human HL-60 cells incubated for 48 hrs; format: functional, cell-based; settings: HL-60, 48 h
Kasumi 1 = assay: Antiproliferative activity against human Kasumi 1 cells incubated for 48 hrs; format: functional, cell-based; settings: Kasumi 1, 48 h
NB-4 = assay: Antiproliferative activity against human NB4 cells incubated for 48 hrs; format: functional, cell-based; settings: NB-4, 48 h
U-937 [7] = assay: Antiproliferative activity against human U-937 cells incubated for 48 hrs; format: functional, cell-based; settings: U-937, 48 h
OCI-AML-3 = assay: Antiproliferative activity against human OCI-AML-3 cells incubated for 48 hrs; format: functional, cell-based; settings: OCI-AML-3, 48 h

Structure (SMILES) | pIC50 (K562) | pIC50 (HCT-116) | IC50 (Histone deacetylase 4) | pIC50 (Histone deacetylase 8 [1]) | pIC50 (A549) | IC50 [2] | pIC50 (Histone deacetylase 3) | pIC50 (Histone deacetylase 1) | pIC50 (Histone deacetylase 4) | pIC50 [2] | other results
Nc1ccccc1NC(=O)/C=C/c1ccc(NC(=O)Cc2ccc3ccccc3c2)cn1 | 5.77 | 5.49 | Not Active | 4.11 | 5.13 | Not Active | 6.38 | 6.69 | – | – | –
Nc1ccccc1NC(=O)/C=C/c1ccc(NC(=O)C(Cc2ccccc2)c2ccccc2)cn1 (centres undefined) | 5.73 | 5.56 | Not Active | – | 5.37 | Not Active | 6.22 | 6.30 | – | – | IC50 (Histone deacetylase 8 [3]): Not Active
O=C(/C=C/c1ccc(NC(=O)Cc2ccc3ccccc3c2)cn1)NO | 6.89 | 6.68 | – | 6.00 | 6.22 | – | 6.77 | 6.42 | 4.75 | 6.95 | –
Nc1ccccc1NC(=O)/C=C/c1ccc(NC(=O)Cc2ccccc2)cn1 | – | – | Not Active | 4.50 | – | Not Active | 6.65 | 6.97 | – | – | –
CCC(C(=O)Nc1ccc(C(=O)Nc2ccccc2N)nc1)c1ccccc1 (centres undefined) | – | – | Not Active | 4.18 | – | Not Active | 6.36 | 6.49 | – | – | –
O=C(/C=C/c1ccc(NC(=O)Cc2ccccc2)cn1)NO | 6.04 | 6.06 | – | 6.74 | 5.53 | – | 7.11 | 7.17 | 4.71 | 7.89 | –
CC(C)C(C(=O)Nc1ccc(C(=O)Nc2ccccc2N)nc1)c1ccccc1 (centres undefined) | – | – | Not Active | 4.12 | – | Not Active | 6.31 | 6.48 | – | – | –
Nc1ccccc1NC(=O)c1ccc(NC(=O)Cc2ccccc2)cn1 | 6.27 | 6.25 | Not Active | 4.11 | 5.87 | Not Active | 6.61 | 6.70 | – | – | –
CCC(C(=O)Nc1ccc(/C=C/C(=O)Nc2ccccc2N)nc1)c1ccccc1 (centres undefined) | – | – | Not Active | 4.45 | – | Not Active | 6.57 | 6.84 | – | – | –
O=C(CCCCCCC(=O)Nc1ccccc1)NO [VORINOSTAT] | – | – | – | – | – | – | – | – | – | – | Activity (U-937 [4]): 70%; Activity (U-937 [5]): 10%
O=C(NO)c1ccc(NC(=O)C(Cc2ccccc2)c2ccccc2)cn1 (centres undefined) | 6.31 | 5.98 | – | 5.96 | 5.58 | – | 6.82 | 6.11 | 4.41 | 7.80 | –
O=C(Cc1cccc2ccccc12)Nc1ccc(C(=O)NO)nc1 | – | – | – | 5.74 | – | – | 5.86 | 5.55 | 4.51 | 7.24 | –
Nc1ccccc1NC(=O)/C=C/c1ccc(NC(=O)Cc2cccc3ccccc23)cn1 | 5.50 | 5.08 | Not Active | – | 5.03 | Not Active | 6.58 | 7.20 | – | – | IC50 (Histone deacetylase 8 [3]): Not Active
Nc1ccccc1NC(=O)c1ccc(CNc2nccc(-c3cccnc3)n2)cc1 [MOCETINOSTAT] | – | – | – | – | – | – | – | – | – | – | pIC50 [6]: 6.18; pIC50 (KARPAS-299): 5.38; pIC50 (OCI-AML2): 5.81; pIC50 (MV4-11): 6.72; pIC50 (HL-60): 6.38; pIC50 (Kasumi 1): 6.82; pIC50 (NB-4): 6.39; pIC50 (U-937 [7]): 5.86; pIC50 (OCI-AML-3): 5.75
O=C(Cc1ccccc1)Nc1ccc(C(=O)NO)nc1 | – | – | – | 5.96 | – | – | 5.69 | 5.52 | 4.08 | 6.76 | –
CC(C)C(C(=O)Nc1ccc(/C=C/C(=O)NO)nc1)c1ccccc1 (centres undefined) | 6.74 | 6.59 | – | 6.77 | 6.23 | – | 7.55 | 7.09 | 4.80 | 8.00 | –
CC(C)C(C(=O)Nc1ccc(/C=C/C(=O)Nc2ccccc2N)nc1)c1ccccc1 (centres undefined) | 5.54 | 5.36 | Not Active | 4.37 | 5.24 | Not Active | 6.50 | 6.82 | – | – | –
CCC(C(=O)Nc1ccc(/C=C/C(=O)NO)nc1)c1ccccc1 (centres undefined) | – | – | – | 6.98 | – | – | 7.44 | 7.11 | 4.77 | 7.96 | –
O=C(Cc1ccc2ccccc2c1)Nc1ccc(C(=O)NO)nc1 | – | – | – | 6.01 | – | – | 6.68 | 4.03 | 4.80 | 6.91 | –
CC(C)C(C(=O)Nc1ccc(C(=O)NO)nc1)c1ccccc1 (centres undefined) | 5.98 | 5.88 | – | 6.05 | 5.43 | – | 6.17 | 6.00 | 4.20 | 7.39 | –
Nc1ccccc1NC(=O)c1ccc(NC(=O)Cc2cccc3ccccc23)cn1 | – | – | Not Active | 4.01 | – | Not Active | 6.54 | 6.89 | – | – | –
CCC(C(=O)Nc1ccc(C(=O)NO)nc1)c1ccccc1 (centres undefined) | 5.75 | 5.77 | – | 6.02 | 5.26 | – | 6.11 | 5.83 | 4.11 | 7.29 | –
